# Results reported in US5153352A, “Process for preparation of intermediates of carbocyclic nucleoside analogs” (priority 1990, dated 1992).
# Legend:
# [1] = tested on: mice; assay: toxicity in uninfected mice (Herpesvirus 1 study); assay type: in vivo, mouse; conditions: 7 doses
# Procedure: Four-week-old female outbred Swiss mice (CD 1, VAF+, Charles River Labs) were housed 5 per Microisolator® cage. Feed and water were supplied ad libitum. Fifteen mice were randomly assigned to each of the following treatment groups:
# Test compounds were diluted in 0.4% carboxymethylcellulose (CMC) prepared in phosphate buffered saline (PBS) at concentrations consistent with dosing at 0.1 ml per 10 q of body weight. Compounds were administered subcutaneously once daily for a total of 7 doses. Five mice in each treatment group served as uninfected toxicity controls. The remaining ten mice in each group were challenged intraperitoneally with an LD90 dose of the twelfth in vivo passage of Herpesvirus 1 (strain 123). Virus challenge was administered two hours after the first dose of compound was given. Mortality was monitored daily for 21 days. The mortality rates, average day of death, geometric mean time to death and virus rating were calculated for each treatment group.
# [2] = tested on: HSV-1(123); assay: plaque reduction, HSV-1(123) in Vero cells; assay type: cell-based, Herpes simplex virus type 1; conditions: Human alphaherpesvirus 1, plaque reduction 50%, read-out: MIC50
# Procedure: (§1) After the adsorption period, the infected cell monolayers were treated in duplicate with serial dilutions of the test compound. Duplicate cell controls containing medium alone and virus controls containing medium and virus were run simultaneously with the test compound. […] Plaques visible to the unaided eye were counted and the mean number of plaques in the duplicate wells for each compound concentration tested and for the untreated, virus infected controls were determined.
# [3] = in vitro; conditions: human, human foreskin fibroblasts, MTT Assay
# [4] = tested on: Vero cells; conditions: monkey
# [5] = tested on: Varicella-Zoster Virus; assay: microbe, parasite or virus in culture; assay type: cell-based, Varicella-Zoster virus (clinical isolate DM625); conditions: Human alphaherpesvirus 3, Fibroblast, 120 h
# [6] = tested on: HSV-2; assay: plaque reduction, HSV-2 in Vero cells; assay type: cell-based, Herpes simplex virus type 2; conditions: Human alphaherpesvirus 2; HSV-2, Vero, plaque reduction 50%; read-out: MIC50
# Procedure: as §1
# [7] = tested on: Human Immunodeficiency Virus (HIV); assay: HIV CPE inhibition assay in ATH8 cells; assay type: cell-based; design: ID50: unit not given beside the values
# Procedure: The ATH8 human T-cell line expresses high levels of the CD4 surface antigen and is quite sensitive to the cytopathogenic effect (CPE) of HIV. The cells were propagated in RPMI 1640 medium supplemented with 4mM glutamine, 15% heat-inactivated fetal bovine serum (Biocell), antibiotics (50 units of penicillin and […] of streptomycin per ml), and 50 units of recombinant-derived human interleukin-2 (ala-125; AMGen Biologicals) per ml.
# The clone H9 cell line is another CD4^+ human T-cell line which is permissive for HIV replication but largely resistant to virus induced CPE. H9 cells productively infected with the HTLV IIIB strain of HIV served as the source of infectious virus. These cells were propagated in RPMI 1640 medium supplemented with glutamine and antibiotics as described above, and with 20% heat-inactivated fetal bovine serum. Freshly harvested, undiluted culture supernatant from the H9/HTLV-IIIB producer cells was used for infectious virus inoculum.
# The screening of compounds for antiviral activity was performed using a modification of the CPE inhibition assay originally developed by Broder and co workers. This assay is based on the ability of uninfected ATH8 cells to grow and form a pellet at the bottom of a culture tube. Starting about 4 days after HIV addition, infected ATH8 cells begin to die and the pellet starts to break up. By day 10 a clear differential is observable in the size of the cell pellet in uninfected control wells versus infected control wells. The protective effect of test compounds can be assessed by adding them at varying concentrations to the cultured cells at the time of virus infection, then monitoring the status of the cell pellet.
# ATH8 cells were used as the primary target in the HIV induced CPE inhibition assay. Cells were treated with polybrene (2 ug/ml in growth medium) for 30 minutes at 37° C., then collected by gentle centrifugation (40×g for 15 minutes at room temperature) and resuspended in clarified (8000×g for 15 minutes at 4° C.) supernate freshly harvested from 48 hours post passage H9/HTL IIIB cells. Following a 60-minute adsorption period at 37° C., the cells were dispensed into the U-bottom wells of 96-well trays (1×10^4 cells in 0.1 ml per well). An equal volume (0.1 ml) of supplemented RPMI 1640 medium containing test compound and twice the normal concentration of interleukin-2 was then added to each well. Test compounds were evaluated at seven half-log dilutions ranging from 100 uq/ml to 0.1 uq/ml. […]
# Between 7 and 10 days post infection, all wells were visually monitored for the degree of CPE inhibition as reflected by cell pellet size, and aliquots were taken from selected wells for determination of cell number and viability (based on trypan blue dye exclusion).
smiles,measurement,setting,value
"Nc1nc2c(ncn2C2CC(CO)C2CO)c(=O)[nH]1 (stereo not drawn) [Example 1I, 9-(2',3'-Bis(hydroxymethyl)cyclobutyl)guanine]",No. Dead/No. Uninfected,[1]; 3.2 mg/kg s.c. once daily,0/5
same,No. Dead/No. Uninfected,[1]; 10 mg/kg s.c. once daily,0/5
same,No. Dead/No. Uninfected,[1]; 32 mg/kg s.c. once daily,0/3
same,EC50,[2],1 µg/mL
same,viability,[3]; 3.2 ug/ml,79%
same,viability,[3]; 10 ug/ml,76%
same,viability,[3]; 32 ug/ml,72%
same,viability,[3]; 100 ug/ml,62%
same,MTC (minimum drug concentration causing any cytotoxicity),[4],320 µg/mL
same,EC50,"[5]; VZV plaque formation, human foreskin fibroblasts, read-out: MIC50",1.4 µg/mL
same,inhibition at 0.1 µg/mL,"[5]; VZV, 0.1 ug/ml, read-out: Plaque Reduction",11.5%
same,inhibition at 0.32 µg/mL,"[5]; VZV, 0.32 ug/ml, read-out: Plaque Reduction",18%
same,inhibition at 1 µg/mL,"[5]; VZV, 1.0 ug/ml, read-out: Plaque Reduction",47.1%
same,inhibition at 3.2 µg/mL,"[5]; VZV, 3.2 ug/ml, read-out: Plaque Reduction",97.7%
same,inhibition at 10 µg/mL,"[5]; VZV, 10 ug/ml, read-out: Plaque Reduction",100%
same,inhibition at 32 µg/mL,"[5]; VZV, 32 ug/ml, read-out: Plaque Reduction",100%
same,inhibition at 100 µg/mL,[5]; read-out: Plaque Reduction,100%
same,EC50,[6],1 µg/mL
"Nc1ncnc2c1ncn2C1CC(CO)C1CO (stereo not drawn) [Example 4C, 9-(2',3'-Bis(hydroxymethyl)cyclobutyl)adenine]",ID50,[7],< 0.1
same,TI,[7],32
same,VR,[7],3.5
